# Test results published in paper PMC10377586 (Biomolecules, 2023).
# Key:
# DPPH antioxidant assay = assay type: physicochemical; conditions: compound at 50 µM
# Source text: The 2,2-diphenyl-1-picrylhydrazyl (DPPH) assay was used to determine the antioxidant properties of selected compounds using ascorbic acid, trolox, and quercetin as references. […] From a structural point of view, 21 and 22 share a common pyrimido[2,1-f]purinedione core with propyl or butyl substituents at the N1- and N3-position. Compounds 11i and 11l, containing hexyl or phenoxyethyl as N7-substituents, were the only structures in the groups of bicyclic xanthine derivatives that lacked antioxidant activity in the DPPH assay.
# Antioxidant properties of considered structures were evaluated in DPPH test. The assay utilizes a stable free radical 2,2-diphenyl-1-picrylhydrazyl (DPPH). DPPH has a deep violet color in solution and strong absorption band at 520 nm. The antioxidant activity of the tested compounds was defined by their ability to induce the formation of the reduced form of DPPH. Upon reduction, DPPH color turned pale yellow, which manifested by decreased sample absorption at 520 nm and was measured in conducted experiments using EnSpire microplate reader (PerkinElmer). Antioxidant activity of xanthine derivatives and reference compounds was tested in triplicate at 50 µM concentration and normalized to the activity of reference radical scavenger—quercetin.
# Figure 2 Antioxidant properties of xanthine derivatives evaluated in the DPPH test. All compounds were tested at 50 µM concentration. Results were normalized to the antioxidant activity measured for quercetin. ASC, ascorbic acid; TLX, trolox; QCT, quercetin.
# human MAO-A = molecular target: T1, human MAO-A (Homo sapiens, UniProt P21397); experiment: Amplex Red monoamine oxidase assay, MAO-A; assay type: biochemical; conditions: for IC50: human recombinant MAO-A, read-out: MAO-A IC50 ± SEM; for inhibition at 1 µM: read-out: MAO-A % Inhibition ± SEM at 1 µM
# T1 construct: purchased Sigma Aldrich M7316
# T1 sequence (P21397 1-527): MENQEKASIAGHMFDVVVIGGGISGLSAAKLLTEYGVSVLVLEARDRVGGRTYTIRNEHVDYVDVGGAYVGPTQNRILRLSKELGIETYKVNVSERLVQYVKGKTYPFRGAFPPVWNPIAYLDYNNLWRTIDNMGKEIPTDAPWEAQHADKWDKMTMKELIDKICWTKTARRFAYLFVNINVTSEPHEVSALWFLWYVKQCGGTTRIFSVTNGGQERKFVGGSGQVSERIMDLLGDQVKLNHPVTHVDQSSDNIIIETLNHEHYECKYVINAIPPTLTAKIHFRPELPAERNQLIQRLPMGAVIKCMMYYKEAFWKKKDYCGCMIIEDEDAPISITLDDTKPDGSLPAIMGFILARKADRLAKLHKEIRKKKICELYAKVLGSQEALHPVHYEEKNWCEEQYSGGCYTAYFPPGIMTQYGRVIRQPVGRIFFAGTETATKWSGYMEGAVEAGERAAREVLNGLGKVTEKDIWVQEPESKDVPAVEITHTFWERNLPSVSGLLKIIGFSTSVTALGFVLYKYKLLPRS
# Method: The final compounds were evaluated in vitro for their human MAO-B (hMAO-B) inhibitory potencies, and selected structures were also investigated for human MAO-A (hMAO-A) inhibition.
# Inhibition activity of compounds at MAO enzyme isoforms was measured via a fluorometric method using the Amplex Red Monoamine Oxidase Assay (ThermoFisher Scientific, Waltham, MA, USA #A12214) in a 96-well plates. Human recombinant MAO-B and MAO-A enzymes (Sigma Aldrich, St. Louis, MO, USA #M7441 and #M7316) were used. The assays were conducted as previously described.
# rat A1 (rA1) ARs = molecular target: T2, rat A1 (rA1) ARs (Rattus norvegicus, UniProt P25099); experiment: Radioligand binding [3H]CCPA, rat brain cortical membranes; conditions: read-out: rA1 [3H]CCPA Ki ± SEM
# T2 construct: using rat brain cortical membrane preparations for A1; tissue Pel Freez; host or cells: rat brain cortex membranes
# T2 sequence (P25099 1-326): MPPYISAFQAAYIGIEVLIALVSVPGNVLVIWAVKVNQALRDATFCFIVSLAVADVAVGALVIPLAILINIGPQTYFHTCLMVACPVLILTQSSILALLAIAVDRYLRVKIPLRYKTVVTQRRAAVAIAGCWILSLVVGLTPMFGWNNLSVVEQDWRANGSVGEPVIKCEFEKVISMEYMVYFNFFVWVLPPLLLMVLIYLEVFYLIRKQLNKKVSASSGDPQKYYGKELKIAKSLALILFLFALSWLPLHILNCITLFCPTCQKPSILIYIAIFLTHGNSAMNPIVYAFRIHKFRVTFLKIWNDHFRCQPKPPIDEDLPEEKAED
# Method: The final compounds were tested in radioligand binding assays to evaluate their affinity for all four ARs subtypes (see Table 2). Rat brain cortical membrane preparations were used as a source of rat A1 (rA1) ARs, and rat brain striatal membrane preparations served as a source of rat A2A (rA2A) ARs. For A2B- and A3AR assays, membrane preparations of Chinese hamster ovary (CHO) cells recombinantly expressing either human A2B (hA2B) or human A3 (hA3) ARs were employed.
# Adenosine receptor radioligand binding assays were performed as previously described using rat brain cortical membrane preparations for A1 and rat brain striatal membrane preparations for A2A AR assays. Frozen rat brains (unstripped) were obtained from Pel Freez, Rogers, AR, USA. For assays at human AR subtypes, cell membranes of CHO cells recombinantly expressing the respective receptor were used. The following compounds were employed as radioligands: A1: [^3H]2-chloro-N^6-cyclopentyladenosine ([^3H]CCPA); A2A: [^3H]3-(3-hydroxypropyl)-7-methyl-8-(m-methoxystyryl)-1-propargylxanthine ([^3H]MSX-2); A2B: [^3H]8-(4-(4-(4-chlorophenyl)piperazine-1-sulfonyl)phenyl)-1-propylxanthine ([^3H]PSB-603); A3: [^3H]phenyl-8-ethyl-4-methyl-(8R)-4,5,7,8-tetrahydro-1H-imidazo[2,1-i]purine-5-one ([^3H]PSB-11). Initially, a single high concentration of compound was tested (1 µM). For potent compounds, full concentration–inhibition curves were determined using six to ten different concentrations of test compound spanning three orders of magnitude. At least three independent experiments were performed. Data were analyzed using GraphPad PRISM program version 4.0 or higher (Graph Pad, San Diego, CA, USA).
SMILES,Antioxidative Activity [% of Quercetin Response at 50 µM ± SD] (DPPH antioxidant assay),IC50 (human MAO-A) [nM],inhibition at 1 µM (human MAO-A) [%],Ki (rat A1 (rA1) ARs) [nM]
"CCCn1c(=O)c2c(nc3n2CCCN3CCc2ccc(O)c(O)c2)n(CCC)c1=O [Compound 21, 9-(3,4-Dihydroxyphenethyl)-1,3-dipropyl-6,7,8,9-tetrahydropyrimido[2,1-f]purine-2,4(1H,3H)-dione]",13 ± 1 % of Quercetin Response,~1000,61,70 ± 5
"CCC(C)n1c(NCCc2ccc(O)c(O)c2)nc2c1c(=O)n(C)c(=O)n2C (centres unmarked) [Compound 11g, 7-(Sec-butyl)-8-((3,4-dihydroxyphenethyl)amino)-1,3-dimethyl-3,7-dihydro-1H-purine-2,6-dione]",71 ± 1 % of Quercetin Response,> 1000,44,1170 ± 380
"CCCCn1c(=O)c2c(nc3n2CCCN3CCc2ccc(O)c(O)c2)n(CCCC)c1=O [Compound 22, 1,3-Dibutyl-9-(3,4-dihydroxyphenethyl)-6,7,8,9-tetrahydropyrimido[2,1-f]purine-2,4(1H,3H)-dione]",26 ± 2 % of Quercetin Response,> 1000,43,53 ± 8
"CCCCCCn1c(NCCc2ccc(O)c(O)c2)nc2c1c(=O)n(C)c(=O)n2C [Compound 11i, 8-((3,4-Dihydroxyphenethyl)amino)-7-hexyl-1,3-dimethyl-3,7-dihydro-1H-purine-2,6-dione]",26 ± 1 % of Quercetin Response,246 ± 72,,> 10000
"Cn1c(=O)c2c(nc(NCCc3ccc(O)c(O)c3)n2CCOc2ccccc2)n(C)c1=O [Compound 11l, 8-((3,4-Dihydroxyphenethyl)amino)-1,3-dimethyl-7-(2-phenoxyethyl)-3,7-dihydro-1H-purine-2,6-dione]",26 ± 3 % of Quercetin Response,> 1000,41,124 ± 22
"CC(C)n1c(NCCc2ccc(O)c(O)c2)nc2c1c(=O)n(C)c(=O)n2C [Compound 11d, 8-((3,4-Dihydroxyphenethyl)amino)-7-isopropyl-1,3-dimethyl-3,7-dihydro-1H-purine-2,6-dione]",87 ± 1 % of Quercetin Response,≥ 1000,47,857 ± 43
"CCn1c(NCCc2ccc(O)c(O)c2)nc2c1c(=O)n(C)c(=O)n2C [Compound 11b, 8-((3,4-Dihydroxyphenethyl)amino)-7-ethyl-1,3-dimethyl-3,7-dihydro-1H-purine-2,6-dione]",75 ± 1 % of Quercetin Response,891 ± 63,,479 ± 95
"CCCn1c(=O)c2c(nc(NCCc3ccc(O)c(O)c3)n2CCC)n(CCC)c1=O [Compound 12, 8-((3,4-Dihydroxyphenethyl)amino)-1,3,7-tripropyl-3,7-dihydro-1H-purine-2,6-dione]",86 ± 3 % of Quercetin Response,~1000,57,130 ± 31
"CCCCCn1c(NCCc2ccc(O)c(O)c2)nc2c1c(=O)n(C)c(=O)n2C [Compound 11h, 8-((3,4-Dihydroxyphenethyl)amino)-1,3-dimethyl-7-pentyl-3,7-dihydro-1H-purine-2,6-dione]",79 ± 1 % of Quercetin Response,692 ± 7,,191 ± 30
"CCCn1c(NCCc2ccc(O)c(O)c2)nc2c1c(=O)n(C)c(=O)n2C [Compound 11c, 8-((3,4-Dihydroxyphenethyl)amino)-1,3-dimethyl-7-propyl-3,7-dihydro-1H-purine-2,6-dione]",69 ± 1 % of Quercetin Response,> 1000,33,730 ± 93
"Cn1c(=O)c2c(nc(NCCc3ccc(O)c(O)c3)n2CCc2ccccc2)n(C)c1=O [Compound 11k, 8-((3,4-Dihydroxyphenethyl)amino)-1,3-dimethyl-7-phenethyl-3,7-dihydro-1H-purine-2,6-dione]",73 ± 3 % of Quercetin Response,256 ± 93,,≥ 10000
"CCCCn1c(NCCc2ccc(O)c(O)c2)nc2c1c(=O)n(C)c(=O)n2C [Compound 11e, 7-Butyl-8-((3,4-dihydroxyphenethyl)amino)-1,3-dimethyl-3,7-dihydro-1H-purine-2,6-dione]",75 ± 1 % of Quercetin Response,> 1000,38,304 ± 66
"Cn1c(=O)c2c(nc(NCCc3ccc(O)c(O)c3)n2Cc2ccccc2)n(C)c1=O [Compound 11j, 7-Benzyl-8-((3,4-dihydroxyphenethyl)amino)-1,3-dimethyl-3,7-dihydro-1H-purine-2,6-dione]",82 ± 1 % of Quercetin Response,576 ± 68,,455 ± 77
"Cn1c(=O)c2c(nc3n2CCCN3CCc2ccc(O)c(O)c2)n(C)c1=O [Compound 20a, 9-(3,4-Dihydroxyphenethyl)-1,3-dimethyl-6,7,8,9-tetrahydropyrimido[2,1-f]purine-2,4(1H,3H)-dione]",68 ± 2 % of Quercetin Response,> 1000,29,≥ 10000
"CC(C)Cn1c(NCCc2ccc(O)c(O)c2)nc2c1c(=O)n(C)c(=O)n2C [Compound 11f, 8-((3,4-Dihydroxyphenethyl)amino)-7-isobutyl-1,3-dimethyl-3,7-dihydro-1H-purine-2,6-dione]",57 ± 1 % of Quercetin Response,> 1000,42,1130 ± 180
"CCCCn1c(=O)c2c(nc(NCCc3ccc(O)c(O)c3)n2CCC)n(CCCC)c1=O [Compound 13, 1,3-Dibutyl-8-((3,4-dihydroxyphenethyl)amino)-7-propyl-3,7-dihydro-1H-purine-2,6-dione]",61 ± 1 % of Quercetin Response,> 1000,36,100 ± 15
